Active and inactive are the calls of the source. No cut-off for these calls is given here.
What was measured:
[1] = molecular target: T1, Protein cereblon/Cyclin-dependent kinase 9 (Homo sapiens, UniProt P50750+Q96SW2); test: PROTAC activity at CRBN/CDK9 in human NCI-H69 cells assessed as increase in CDK9 ubiquitination preincubated with MG132 for 2 hrs followed by compound addition and measured after 3 hrs by co-immunoprecipitation analysis; assay type: cell-based
[2] = molecular target: CDK2/Cyclin A2 (Homo sapiens) (UniProt P24941+P20248); settings: dose 10.0 nM
[3] = molecular target: T1, Protein cereblon/Cyclin-dependent kinase 9; test: PROTAC activity at CRBN/CDK9 in human NCI-H69 cells assessed as induction of CDK9 degradation preincubated with AT-7519 for 2 hrs followed by compound addition and measured after 3 hrs by Western blot analysis; assay type: cell-based
NCI-H446 [4] = test: Downregulation of CDK9 protein level in human NCI-H446 cells at 10 nM incubated for 3 hrs by quantitative proteomic analysis; assay type: functional, cell-based
[5] = molecular target: Cyclin-dependent kinase 4/cyclin D1 (Homo sapiens) (UniProt P11802+P24385); test: Inhibition of CDK4/cyclin D1 (unknown origin) at 10 nM relative to control; assay type: protein-complex assay
[6] = molecular target: T2, Cyclin-dependent kinase 5/CDK5 activator 1 (Homo sapiens) (UniProt Q00535+Q15078); test: Inhibition of CDK5/p25NCK (unknown origin) at 10 nM relative to control; assay type: protein-complex assay
[7] = molecular target: CDK9/cyclin T1 (Homo sapiens) (UniProt O60563+P50750); test: Inhibition of CDK9/Cyclin T1 (unknown origin) at 10 nM relative to control; assay type: protein-complex assay
NCI-H446 [8] = test: Antitumor activity against human NCI-H446 cells expressing luciferase-GFP xenografted in female NU-NU mouse model assessed as decrease in tumor burden at 12.5 to 25 mg/kg, po administered for 19 days; assay type: functional, organism-based; settings: dose 12.5-25 mg/kg, time 19.0 day
NCI-H69 [9] = test: Induction of apoptosis in human NCI-H69 cells assessed as increase in cleaved caspase-3 level incubated for 36 hrs by Western blot analysis; assay type: functional, cell-based
[10] = molecular target: T1, Protein cereblon/Cyclin-dependent kinase 9; test: In vivo PROTAC activity at CRBN/CDK9 in female BALB/c nude mouse xenografted with human NCI-H446 cells assessed as induction of CDK9 degradation in tumor at 25 mg/kg, po measured after 6 to 12 hrs by Western blot analysis; assay type: functional, organism-based; settings: time 6-12 hrs
[11] = system: Small cell lung cancer cell line; test: Antitumor activity against LDI-0025-362145 patient derived Small cell lung cancer cell line xenografted in BALB/c nude mouse assessed as reduction in tumor growth at 25 mg/kg, po administered once daily for 7 days; assay type: functional, organism-based; settings: Homo sapiens, time 7.0 day
[12] = molecular target: T1, Protein cereblon/Cyclin-dependent kinase 9; test: PROTAC activity at CRBN/CDK9 in human NCI-H69 cells assessed as induction of CDK9 degradation at 10 nM measured within 3 hrs by Western blot analysis; assay type: cell-based
[13] = molecular target: T1, Protein cereblon/Cyclin-dependent kinase 9; test: PROTAC activity at CRBN/CDK9 in human NCI-H69 cells assessed as induction of CDK9 degradation at 10 nM by Western blot analysis; assay type: cell-based; settings: time 0.5-12 hrs
[14] = molecular target: T1, Protein cereblon/Cyclin-dependent kinase 9; test: PROTAC activity at CRBN/CDK9 in human NCI-H446 cells assessed as increase in CDK9 ubiquitination preincubated with MG132 for 2 hrs followed by compound addition and measured after 3 hrs by co-immunoprecipitation analysis; assay type: cell-based
[15] = molecular target: Cyclin-dependent kinase 1/cyclin B1 (Homo sapiens) (UniProt P06493+P14635); test: Inhibition of CDK1/cyclin B1 (unknown origin) at 10 nM relative to control; assay type: protein-complex assay
DMS-114 = test: Inhibition of colony formation in human DMS-114 cells at 2 to 4 nM incubated for 8 days by crystal violet staining based analysis; assay type: functional, cell-based; settings: dose 2-4 nM, time 8.0 day
[16] = molecular target: T1, Protein cereblon/Cyclin-dependent kinase 9; test: PROTAC activity at CRBN/CDK9 in human NCI-H446 cells assessed as induction of CDK9 degradation at 10 nM by Western blot analysis relative to control; assay type: cell-based
[17] = molecular target: CDK4/Cyclin D3 (Homo sapiens) (UniProt P11802+P30281); test: Inhibition of CDK4/cyclin D3 (unknown origin) at 10 nM relative to control; assay type: protein-complex assay
DMS-53 = test: Inhibition of cell invasion in human DMS-53 cells assessed as decrease in number of cells passing through upper chamber at 2to 4 nM incubated for 48 hrs by crystal violet staining based microscopic analysis; assay type: functional
[18] = molecular target: CDK12/Cyclin K (Homo sapiens) (UniProt O75909+Q9NYV4); test: Inhibition of CDK12/Cyclin K (unknown origin) at 10 nM relative to control; assay type: protein-complex assay
[19] = molecular target: Cyclin-dependent kinase 9 (Homo sapiens) (UniProt P50750); test: Inhibition of CDK9-related signaling in human NCI-H69 cells assessed as decrease in RNA polymerase II phosphorylation at Ser2 residue at 0.5 to 10 nM incubated for 24 hrs by Western blot analysis; assay type: cell-based; settings: dose 0.5-10 nM
[20] = molecular target: T2, Cyclin-dependent kinase 5/CDK5 activator 1 (Homo sapiens); test: Inhibition of CDK5/p35NCK (unknown origin) at 10 nM relative to control; assay type: protein-complex assay
[21] = molecular target: Cyclin-dependent kinase 13/Cyclin-K (Homo sapiens) (UniProt Q14004+O75909); test: Inhibition of CDK13/Cyclin K (unknown origin) at 10 nM relative to control; assay type: protein-complex assay
NCI-H69 [22] = test: Induction of apoptosis in human NCI-H69 cells assessed as decrease in BCL-2 expression incubated for 36 hrs by Western blot analysis; assay type: functional, cell-based
[23] = molecular target: T1, Protein cereblon/Cyclin-dependent kinase 9; test: PROTAC activity at CRBN/CDK9 in human NCI-H69 cells assessed as induction of CDK9 degradation by measuring reduction in half-life incubated upto 24 hrs in presence of cycloheximide by Western blot analysis; assay type: cell-based
[24] = molecular target: Cyclin-dependent kinase 9 (Homo sapiens) (UniProt P50750); test: Inhibition of CDK9-related signaling in human NCI-H69 cells assessed as decrease in RNA polymerase II phosphorylation at Ser5 residue at 0.5 to 10 nM incubated for 24 hrs by Western blot analysis; assay type: cell-based; settings: dose 0.5-10 nM
NCI-H446 [25] = test: Induction of apoptosis in human NCI-H446 cells incubated for 36 hrs by Annexin V-FITC/PI staining based flow cytometric analysis; assay type: functional, cell-based; settings: dose 1-8 nM
NCI-H446 [26] = test: Antitumor activity against human NCI-H446 cells xenografted in female NU-NU mouse model assessed as decrease in Ki67 level in tumor at 12.5 to 25 mg/kg, po administered once daily for 15 days by immunohistochemical staining based analysis; assay type: functional, organism-based; settings: dose 12.5-25 mg/kg, time 15.0 day
[27] = molecular target: T1, Protein cereblon/Cyclin-dependent kinase 9; test: In vivo PROTAC activity at CRBN/CDK9 in female BALB/c nude mouse xenografted with human NCI-H446 cells assessed as induction of CDK9 degradation in tumor at 25 mg/kg, po measured after 24 hrs by Western blot analysis; assay type: functional, organism-based
[28] = molecular target: T1, Protein cereblon/Cyclin-dependent kinase 9; test: PROTAC activity at CRBN/CDK9 in human NCI-H69 cells assessed as induction of CDK9 degradation preincubated with thalidomide for 2 hrs followed by compound addition and measured after 3 hrs by Western blot analysis; assay type: cell-based
[29] = molecular target: Cyclin-dependent kinase 9 (Homo sapiens) (UniProt P50750); test: Inhibition of CDK9-related signaling in human NCI-H69 cells assessed as reduction in c-MYC expression level at 0.5 to 10 nM incubated for 24 hrs by Western blot analysis; assay type: cell-based; settings: dose 0.5-10 nM
[30] = molecular target: T1, Protein cereblon/Cyclin-dependent kinase 9; test: PROTAC activity at CRBN/CDK9 in human NCI-H69 cells assessed as induction of CDK9 degradation at 10 nM by Western blot analysis relative to control; assay type: cell-based

T1 sequence (P50750 whole entry, looked up): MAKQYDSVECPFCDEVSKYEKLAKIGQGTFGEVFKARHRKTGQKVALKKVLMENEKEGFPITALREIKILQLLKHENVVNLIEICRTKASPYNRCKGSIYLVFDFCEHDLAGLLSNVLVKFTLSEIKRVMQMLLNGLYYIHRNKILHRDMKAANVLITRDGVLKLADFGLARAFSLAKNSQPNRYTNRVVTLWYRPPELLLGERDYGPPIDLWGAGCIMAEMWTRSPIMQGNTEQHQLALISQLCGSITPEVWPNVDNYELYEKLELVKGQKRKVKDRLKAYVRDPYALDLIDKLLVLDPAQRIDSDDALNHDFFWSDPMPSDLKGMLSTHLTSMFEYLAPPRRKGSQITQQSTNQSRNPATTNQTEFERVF
T1 sequence (Q96SW2 whole entry, looked up): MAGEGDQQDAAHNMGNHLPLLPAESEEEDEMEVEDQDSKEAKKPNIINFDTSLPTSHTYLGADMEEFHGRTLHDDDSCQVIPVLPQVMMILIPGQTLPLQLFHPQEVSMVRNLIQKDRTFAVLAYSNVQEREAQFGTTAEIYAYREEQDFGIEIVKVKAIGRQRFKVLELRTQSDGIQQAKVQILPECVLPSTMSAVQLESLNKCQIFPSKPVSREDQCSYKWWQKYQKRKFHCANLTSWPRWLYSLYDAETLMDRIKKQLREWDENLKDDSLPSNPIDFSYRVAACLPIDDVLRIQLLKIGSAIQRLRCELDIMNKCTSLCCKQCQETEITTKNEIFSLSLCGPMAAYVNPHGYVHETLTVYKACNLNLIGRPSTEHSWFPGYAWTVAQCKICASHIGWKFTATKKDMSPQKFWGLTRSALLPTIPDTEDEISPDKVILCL
Cyclin-dependent kinase 9 (Homo sapiens), sequence (P50750 whole entry): as the sequence (P50750 whole entry, looked up) above
T2 sequence (Q00535 whole entry): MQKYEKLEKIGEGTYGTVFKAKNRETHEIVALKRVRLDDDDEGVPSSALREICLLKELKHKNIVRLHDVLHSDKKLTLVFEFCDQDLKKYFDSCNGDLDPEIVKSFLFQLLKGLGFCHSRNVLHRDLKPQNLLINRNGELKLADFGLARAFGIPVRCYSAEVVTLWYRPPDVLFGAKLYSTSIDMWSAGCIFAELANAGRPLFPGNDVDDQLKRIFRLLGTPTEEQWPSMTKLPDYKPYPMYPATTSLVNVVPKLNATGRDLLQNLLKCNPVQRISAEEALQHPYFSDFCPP
T2 sequence (Q15078 99-307 partner limits assumed): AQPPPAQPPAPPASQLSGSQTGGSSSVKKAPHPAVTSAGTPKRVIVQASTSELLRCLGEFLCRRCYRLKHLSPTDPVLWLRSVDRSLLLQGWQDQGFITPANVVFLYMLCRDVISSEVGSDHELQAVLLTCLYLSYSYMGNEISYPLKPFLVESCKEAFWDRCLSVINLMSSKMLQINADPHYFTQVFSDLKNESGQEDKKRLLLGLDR
Cyclin-dependent kinase 13/Cyclin-K (Homo sapiens), sequence (O75909 whole entry, looked up): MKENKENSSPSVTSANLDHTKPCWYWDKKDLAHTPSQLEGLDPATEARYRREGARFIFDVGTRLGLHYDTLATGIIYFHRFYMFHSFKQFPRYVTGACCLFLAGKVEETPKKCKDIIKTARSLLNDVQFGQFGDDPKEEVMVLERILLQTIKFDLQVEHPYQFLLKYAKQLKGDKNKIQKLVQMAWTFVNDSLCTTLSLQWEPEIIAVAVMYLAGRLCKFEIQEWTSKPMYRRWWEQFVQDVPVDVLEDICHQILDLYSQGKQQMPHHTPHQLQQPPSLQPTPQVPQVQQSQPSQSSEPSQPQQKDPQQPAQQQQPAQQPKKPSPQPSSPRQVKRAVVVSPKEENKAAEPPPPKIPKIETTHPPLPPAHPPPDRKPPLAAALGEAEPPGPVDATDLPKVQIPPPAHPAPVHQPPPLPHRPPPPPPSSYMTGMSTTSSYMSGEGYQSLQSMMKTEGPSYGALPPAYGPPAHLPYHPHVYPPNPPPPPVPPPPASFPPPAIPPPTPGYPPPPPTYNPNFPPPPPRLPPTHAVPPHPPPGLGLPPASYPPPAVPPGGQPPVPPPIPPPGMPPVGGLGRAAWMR
Cyclin-dependent kinase 13/Cyclin-K (Homo sapiens), sequence (Q14004 whole entry, looked up): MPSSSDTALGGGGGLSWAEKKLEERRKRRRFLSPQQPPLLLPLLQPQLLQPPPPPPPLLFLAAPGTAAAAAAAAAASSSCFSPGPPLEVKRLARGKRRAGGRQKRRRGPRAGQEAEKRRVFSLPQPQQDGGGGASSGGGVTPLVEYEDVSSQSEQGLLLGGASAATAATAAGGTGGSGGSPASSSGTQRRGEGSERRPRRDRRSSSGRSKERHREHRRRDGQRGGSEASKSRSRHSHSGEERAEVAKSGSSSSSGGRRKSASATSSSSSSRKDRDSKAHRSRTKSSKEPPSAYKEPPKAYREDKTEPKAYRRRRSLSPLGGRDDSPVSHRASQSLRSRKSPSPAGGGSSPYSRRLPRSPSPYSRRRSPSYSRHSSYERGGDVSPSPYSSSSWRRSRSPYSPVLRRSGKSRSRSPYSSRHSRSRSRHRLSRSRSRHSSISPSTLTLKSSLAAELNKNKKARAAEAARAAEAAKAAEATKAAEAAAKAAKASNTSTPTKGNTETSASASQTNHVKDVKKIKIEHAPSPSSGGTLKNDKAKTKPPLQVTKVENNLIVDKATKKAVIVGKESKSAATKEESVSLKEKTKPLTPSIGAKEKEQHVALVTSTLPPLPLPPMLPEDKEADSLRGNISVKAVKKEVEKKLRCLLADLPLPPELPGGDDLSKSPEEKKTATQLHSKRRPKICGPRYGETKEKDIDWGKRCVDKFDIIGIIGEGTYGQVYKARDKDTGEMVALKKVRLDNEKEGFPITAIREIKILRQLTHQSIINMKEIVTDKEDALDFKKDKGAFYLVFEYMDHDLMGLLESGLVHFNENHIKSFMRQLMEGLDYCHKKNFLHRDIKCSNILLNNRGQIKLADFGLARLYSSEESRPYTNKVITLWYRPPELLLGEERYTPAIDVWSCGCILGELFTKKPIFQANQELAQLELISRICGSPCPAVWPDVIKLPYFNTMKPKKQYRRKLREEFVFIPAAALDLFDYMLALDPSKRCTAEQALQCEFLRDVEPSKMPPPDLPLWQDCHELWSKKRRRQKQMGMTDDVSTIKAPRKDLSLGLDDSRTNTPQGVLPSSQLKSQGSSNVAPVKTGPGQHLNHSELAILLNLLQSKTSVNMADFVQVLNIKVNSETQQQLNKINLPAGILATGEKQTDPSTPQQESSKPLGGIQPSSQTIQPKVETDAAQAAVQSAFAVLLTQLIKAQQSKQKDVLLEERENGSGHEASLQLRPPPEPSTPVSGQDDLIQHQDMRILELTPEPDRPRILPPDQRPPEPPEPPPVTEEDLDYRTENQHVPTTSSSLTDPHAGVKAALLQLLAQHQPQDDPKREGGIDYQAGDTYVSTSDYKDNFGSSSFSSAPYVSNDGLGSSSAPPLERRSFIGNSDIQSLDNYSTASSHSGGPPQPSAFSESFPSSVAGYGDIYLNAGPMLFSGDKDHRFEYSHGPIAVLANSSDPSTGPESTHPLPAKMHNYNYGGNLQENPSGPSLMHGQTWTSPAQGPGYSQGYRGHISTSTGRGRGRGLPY
CDK12/Cyclin K (Homo sapiens), sequence (O75909 whole entry, looked up): as the sequence (O75909 whole entry, looked up) above
CDK12/Cyclin K (Homo sapiens), sequence (Q9NYV4 whole entry, looked up): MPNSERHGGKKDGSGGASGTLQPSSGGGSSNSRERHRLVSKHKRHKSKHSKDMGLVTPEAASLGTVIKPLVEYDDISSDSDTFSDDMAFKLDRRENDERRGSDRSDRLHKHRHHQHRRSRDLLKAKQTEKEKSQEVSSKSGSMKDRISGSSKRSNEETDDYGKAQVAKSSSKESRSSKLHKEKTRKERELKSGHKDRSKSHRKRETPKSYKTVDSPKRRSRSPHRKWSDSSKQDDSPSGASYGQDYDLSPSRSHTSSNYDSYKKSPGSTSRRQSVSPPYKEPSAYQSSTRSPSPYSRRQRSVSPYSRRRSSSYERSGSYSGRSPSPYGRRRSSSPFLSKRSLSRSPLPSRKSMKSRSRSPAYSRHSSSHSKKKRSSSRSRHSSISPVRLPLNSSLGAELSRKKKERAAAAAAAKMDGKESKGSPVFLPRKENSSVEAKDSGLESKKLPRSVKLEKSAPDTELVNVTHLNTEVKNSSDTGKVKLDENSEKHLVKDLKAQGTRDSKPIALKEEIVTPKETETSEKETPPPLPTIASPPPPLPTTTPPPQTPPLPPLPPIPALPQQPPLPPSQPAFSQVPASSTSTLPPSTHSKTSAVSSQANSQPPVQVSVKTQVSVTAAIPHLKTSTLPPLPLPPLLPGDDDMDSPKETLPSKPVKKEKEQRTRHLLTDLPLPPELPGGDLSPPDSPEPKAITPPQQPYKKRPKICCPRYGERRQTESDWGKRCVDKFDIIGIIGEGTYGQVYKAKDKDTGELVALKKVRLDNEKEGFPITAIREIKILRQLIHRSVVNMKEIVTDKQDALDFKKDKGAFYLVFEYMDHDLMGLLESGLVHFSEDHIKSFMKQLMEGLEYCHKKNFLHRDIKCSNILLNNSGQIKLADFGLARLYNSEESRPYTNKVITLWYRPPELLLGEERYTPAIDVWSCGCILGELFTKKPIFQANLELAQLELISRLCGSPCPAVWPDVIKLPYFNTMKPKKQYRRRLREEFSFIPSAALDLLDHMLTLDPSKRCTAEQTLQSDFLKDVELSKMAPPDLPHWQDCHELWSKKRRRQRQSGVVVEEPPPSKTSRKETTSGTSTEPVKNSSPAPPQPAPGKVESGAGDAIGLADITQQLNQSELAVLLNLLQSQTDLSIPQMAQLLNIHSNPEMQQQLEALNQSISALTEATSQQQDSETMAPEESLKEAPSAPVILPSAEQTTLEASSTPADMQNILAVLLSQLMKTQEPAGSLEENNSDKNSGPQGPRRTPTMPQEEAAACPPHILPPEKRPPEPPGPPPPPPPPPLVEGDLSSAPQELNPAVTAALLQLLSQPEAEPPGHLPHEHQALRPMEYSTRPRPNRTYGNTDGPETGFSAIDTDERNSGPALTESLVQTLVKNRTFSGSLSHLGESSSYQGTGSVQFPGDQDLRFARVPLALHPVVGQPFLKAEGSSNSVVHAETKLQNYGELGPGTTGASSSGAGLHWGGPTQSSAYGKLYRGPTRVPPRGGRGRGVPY

Activity [1]: Active | inhibition [2]: 33% | Activity [3]: inactive | inhibition [5]: 37% | inhibition [6]: 52% | inhibition [7]: 95% | Activity [10]: Active | Activity [12]: Active | Activity [13]: Time-dependent-effect | Activity [14]: Active | inhibition [15]: 46% | Activity [16]: 93.4% | inhibition [17]: 55% | inhibition [18]: 38% | inhibition [19]: Active | inhibition [20]: 45% | inhibition [21]: 56% | Activity [23]: Active | inhibition [24]: Active | Activity [28]: inactive | inhibition [29]: Active | Activity [30]: 91.2%
Compound: O=C1CCC(Nc2cccc(N3CCN(CC4CCN(CC(=O)N5CCC(NC(=O)c6n[nH]cc6NC(=O)c6c(Cl)cccc6Cl)CC5)CC4)CC3)c2)C(=O)N1 (configuration not stated)
Activity (NCI-H446 [4]): Active | Activity (NCI-H446 [8]): Active | Activity (NCI-H69 [9]): Dose-dependent-effect | Activity [11]: Active | inhibition (DMS-114): Active | inhibition (DMS-53): Active | Activity (NCI-H69 [22]): Dose-dependent-effect | Activity (NCI-H446 [25]): Dose-dependent-effect | Activity (NCI-H446 [26]): Active | Activity [27]: Not active; Very Short Self-Renewal Period For Cdk9 Observed

Source: ChEMBL document CHEMBL6121063, “Identification of a Potent and Selective CDK9 Degrader as a Targeted Therapeutic Option for the Treatment of Small-Cell Lung Cancer” (J Med Chem, 2025)
